Experimental data: paper PMC9578392, “Safety, Tolerability, and Pharmacokinetics of the Novel Antiviral Agent Ensitrelvir Fumaric Acid, a SARS-CoV-2 3CL Protease Inhibitor, in Healthy Adults” (Antimicrobial Agents and Chemotherapy, 2022)

Assay: Treatment-emergent adverse events, multiple dose (part 2)
Type: in vivo, human
Conditions: for Abdominal pain, Events / Abdominal pain, n (%) / Blood creatine phosphate increased, Events / Blood creatine phosphate increased, n (%) / Blood triglyceride increased, Events / Blood triglyceride increased, n (%) / C-reactive protein increased, Events / C-reactive protein increased, n (%) / Diarrhea, Events / Diarrhea, n (%) / Dizziness, Events / Dizziness, n (%) / Feeling hot, Events / Feeling hot, n (%) / Gastrointestinal disorders, Events / Gastrointestinal disorders, n (%) / General disorders and administration site conditions, Events / General disorders and administration site conditions, n (%) / Headache, Events / Headache, n (%) / High-density lipoprotein cholesterol decreased, Events / High-density lipoprotein cholesterol decreased, n (%) / Investigations, Events / Investigations, n (%) / Nausea, Events / Nausea, n (%) / Nervous system disorders, Events / Nervous system disorders, n (%) / Oropharyngeal pain, Events / Oropharyngeal pain, n (%) / Participants with any TEAE, Events / Participants with any TEAE, n (%) / Pyrexia, Events / Pyrexia, n (%) / Rash, Events / Rash, n (%) / Respiratory, thoracic, and mediastinal disorders, Events / Respiratory, thoracic, and mediastinal disorders, n (%) / Skin and subcutaneous tissue disorders, Events / Skin and subcutaneous tissue disorders, n (%) / Somnolence, Events / Somnolence, n (%) / Vomiting, Events / Vomiting, n (%): n = 8
Description: In part 1, Japanese participants were randomized to receive placebo or single dose of ensitrelvir (20, 70, 250, 500, 1,000, and 2,000 mg given to cohorts A, B, C, D, E, and J, respectively), suspended in 0.5% methylcellulose, in the fasted state. Additionally, in cohort C, the effect of food on the pharmacokinetics of ensitrelvir was investigated in a 2-group, 2-period crossover design by administering placebo or ensitrelvir (250 mg) in the fasted or fed (high-fat/high-calorie) state. In part 2, Japanese participants were randomized to receive placebo or multiple doses of ensitrelvir, suspended in 0.5% methylcellulose. The multiple-dose regimens were as follows: once-daily doses of ensitrelvir 375 mg on day 1 and 125 mg on days 2 to 5 (cohort F), or 750 mg on day 1 and 250 mg on days 2 to 6 (cohort G) in the fasted state. White participants were randomized to receive placebo or multiple doses of ensitrelvir. The multiple-dose regimens were as follows: once-daily doses of ensitrelvir 375 mg on day 1 and 125 mg on days 2 to 5 (cohort H). Each cohort included 11 participants. In cohort G, the effect of ensitrelvir on the pharmacokinetics of midazolam (syrup) was evaluated in an open label self-controlled crossover design. Midazolam 2 mg alone was administered 2 days prior to initiating ensitrelvir administration (on day −2) and midazolam was coadministered on day 6 with placebo or ensitrelvir in the fasted state to participants following once-daily doses for 5 days of placebo (days 1 to 5) or ensitrelvir (750 mg on day 1 and 250 mg on days 2–5).
The nature, frequency, and severity of TEAEs were evaluated and recorded.

[1] = Cohort F 375/125 mg, Japanese, listed as ensitrelvir
[2] = Cohort G 750/250 mg + midazolam, Japanese
[3] = Cohort G 750/250 mg + midazolam, Japanese, listed as ensitrelvir
[4] = Cohort H 125 mg, white, listed as ensitrelvir

Cn1cnc(Cn2c(=O)[nH]/c(=N\c3cc4cn(C)nc4cc3Cl)n(Cc3cc(F)c(F)cc3F)c2=O)n1 [Ensitrelvir, ensitrelvir fumaric acid]
Abdominal pain, Events (Cohort F 375/125 mg, Japanese): 0
Abdominal pain, n (%) (Cohort F 375/125 mg, Japanese): 0
Blood creatine phosphate increased, Events (Cohort F 375/125 mg, Japanese): 0
Blood creatine phosphate increased, n (%) (Cohort F 375/125 mg, Japanese): 0
Blood triglyceride increased, Events (Cohort F 375/125 mg, Japanese): 0
Blood triglyceride increased, n (%) (Cohort F 375/125 mg, Japanese): 0
C-reactive protein increased, Events (Cohort F 375/125 mg, Japanese): 0
C-reactive protein increased, n (%) (Cohort F 375/125 mg, Japanese): 0
Diarrhea, Events (Cohort F 375/125 mg, Japanese): 5
Diarrhea, n (%) (Cohort F 375/125 mg, Japanese): 4 (50.0)
Dizziness, Events (Cohort F 375/125 mg, Japanese): 0
Dizziness, n (%) (Cohort F 375/125 mg, Japanese): 0
Feeling hot, Events (Cohort F 375/125 mg, Japanese): 0
Feeling hot, n (%) (Cohort F 375/125 mg, Japanese): 0
Gastrointestinal disorders, Events (Cohort F 375/125 mg, Japanese): 5
Gastrointestinal disorders, n (%) (Cohort F 375/125 mg, Japanese): 4 (50.0)
General disorders and administration site conditions, Events (Cohort F 375/125 mg, Japanese): 0
General disorders and administration site conditions, n (%) (Cohort F 375/125 mg, Japanese): 0
Headache, Events (Cohort F 375/125 mg, Japanese): 0
Headache, n (%) (Cohort F 375/125 mg, Japanese): 0
High-density lipoprotein cholesterol decreased, Events (Cohort F 375/125 mg, Japanese): 7
High-density lipoprotein cholesterol decreased, n (%) (Cohort F 375/125 mg, Japanese): 7 (87.5)
Investigations, Events (Cohort F 375/125 mg, Japanese): 7
Investigations, n (%) (Cohort F 375/125 mg, Japanese): 7 (87.5)
Nausea, Events (Cohort F 375/125 mg, Japanese): 0
Nausea, n (%) (Cohort F 375/125 mg, Japanese): 0
Nervous system disorders, Events (Cohort F 375/125 mg, Japanese): 0
Nervous system disorders, n (%) (Cohort F 375/125 mg, Japanese): 0
Oropharyngeal pain, Events (Cohort F 375/125 mg, Japanese): 0
Oropharyngeal pain, n (%) (Cohort F 375/125 mg, Japanese): 0
Participants with any TEAE, Events (Cohort F 375/125 mg, Japanese): 12
Participants with any TEAE, n (%) (Cohort F 375/125 mg, Japanese): 7 (87.5)
Pyrexia, Events (Cohort F 375/125 mg, Japanese): 0
Pyrexia, n (%) (Cohort F 375/125 mg, Japanese): 0
Rash, Events (Cohort F 375/125 mg, Japanese): 0
Rash, n (%) (Cohort F 375/125 mg, Japanese): 0
Respiratory, thoracic, and mediastinal disorders, Events (Cohort F 375/125 mg, Japanese): 0
Respiratory, thoracic, and mediastinal disorders, n (%) (Cohort F 375/125 mg, Japanese): 0
Skin and subcutaneous tissue disorders, Events (Cohort F 375/125 mg, Japanese): 0
Skin and subcutaneous tissue disorders, n (%) (Cohort F 375/125 mg, Japanese): 0
Somnolence, Events (Cohort F 375/125 mg, Japanese): 0
Somnolence, n (%) (Cohort F 375/125 mg, Japanese): 0
Vomiting, Events (Cohort F 375/125 mg, Japanese): 0
Vomiting, n (%) (Cohort F 375/125 mg, Japanese): 0
Diarrhea, n (%) [1]: 4/8
High-density lipoprotein cholesterol decreased, n (%) [1]: 7/8
Abdominal pain, Events [2]: 0
Abdominal pain, n (%) [2]: 0
Blood creatine phosphate increased, Events [2]: 1
Blood creatine phosphate increased, n (%) [2]: 1 (12.5)
Blood triglyceride increased, Events [2]: 2
Blood triglyceride increased, n (%) [2]: 2 (25.0)
C-reactive protein increased, Events [2]: 1
C-reactive protein increased, n (%) [2]: 1 (12.5)
Diarrhea, Events [2]: 6
Diarrhea, n (%) [2]: 4 (50.0)
Dizziness, Events [2]: 1
Dizziness, n (%) [2]: 1 (12.5)
Feeling hot, Events [2]: 1
Feeling hot, n (%) [2]: 1 (12.5)
Gastrointestinal disorders, Events [2]: 8
Gastrointestinal disorders, n (%) [2]: 4 (50.0)
General disorders and administration site conditions, Events [2]: 2
General disorders and administration site conditions, n (%) [2]: 2 (25.0)
Headache, Events [2]: 6
Headache, n (%) [2]: 4 (50.0)
High-density lipoprotein cholesterol decreased, Events [2]: 7
High-density lipoprotein cholesterol decreased, n (%) [2]: 7 (87.5)
Investigations, Events [2]: 11
Investigations, n (%) [2]: 7 (87.5)
Nausea, Events [2]: 1
Nausea, n (%) [2]: 1 (12.5)
Nervous system disorders, Events [2]: 11
Nervous system disorders, n (%) [2]: 5 (62.5)
Oropharyngeal pain, Events [2]: 0
Oropharyngeal pain, n (%) [2]: 0
Participants with any TEAE, Events [2]: 33
Participants with any TEAE, n (%) [2]: 8 (100)
Pyrexia, Events [2]: 1
Pyrexia, n (%) [2]: 1 (12.5)
Rash, Events [2]: 1
Rash, n (%) [2]: 1 (12.5)
Respiratory, thoracic, and mediastinal disorders, Events [2]: 0
Respiratory, thoracic, and mediastinal disorders, n (%) [2]: 0
Skin and subcutaneous tissue disorders, Events [2]: 1
Skin and subcutaneous tissue disorders, n (%) [2]: 1 (12.5)
Somnolence, Events [2]: 4
Somnolence, n (%) [2]: 3 (37.5)
Vomiting, Events [2]: 1
Vomiting, n (%) [2]: 1 (12.5)
Diarrhea, n (%) [3]: 4/8
Headache, n (%) [3]: 4/8
High-density lipoprotein cholesterol decreased, n (%) [3]: 7/8
Somnolence, n (%) [3]: 3/8
Abdominal pain, Events (Cohort H 125 mg, white): 1
Abdominal pain, n (%) (Cohort H 125 mg, white): 1 (12.5)
Blood creatine phosphate increased, Events (Cohort H 125 mg, white): 0
Blood creatine phosphate increased, n (%) (Cohort H 125 mg, white): 0
Blood triglyceride increased, Events (Cohort H 125 mg, white): 0
Blood triglyceride increased, n (%) (Cohort H 125 mg, white): 0
C-reactive protein increased, Events (Cohort H 125 mg, white): 0
C-reactive protein increased, n (%) (Cohort H 125 mg, white): 0
Diarrhea, Events (Cohort H 125 mg, white): 6
Dizziness, Events (Cohort H 125 mg, white): 0
Dizziness, n (%) (Cohort H 125 mg, white): 0
Feeling hot, Events (Cohort H 125 mg, white): 0
Feeling hot, n (%) (Cohort H 125 mg, white): 0
Gastrointestinal disorders, Events (Cohort H 125 mg, white): 7
Gastrointestinal disorders, n (%) (Cohort H 125 mg, white): 4 (50.0)
General disorders and administration site conditions, Events (Cohort H 125 mg, white): 0
General disorders and administration site conditions, n (%) (Cohort H 125 mg, white): 0
Headache, Events (Cohort H 125 mg, white): 4
Headache, n (%) (Cohort H 125 mg, white): 2 (25.0)
High-density lipoprotein cholesterol decreased, Events (Cohort H 125 mg, white): 7
High-density lipoprotein cholesterol decreased, n (%) (Cohort H 125 mg, white): 7 (87.5)
Investigations, Events (Cohort H 125 mg, white): 7
Investigations, n (%) (Cohort H 125 mg, white): 7 (87.5)
Nausea, Events (Cohort H 125 mg, white): 0
Nausea, n (%) (Cohort H 125 mg, white): 0
Nervous system disorders, Events (Cohort H 125 mg, white): 4
Nervous system disorders, n (%) (Cohort H 125 mg, white): 2 (25.0)
Oropharyngeal pain, Events (Cohort H 125 mg, white): 1
Oropharyngeal pain, n (%) (Cohort H 125 mg, white): 1 (12.5)
Participants with any TEAE, Events (Cohort H 125 mg, white): 19
Participants with any TEAE, n (%) (Cohort H 125 mg, white): 8 (100)
Pyrexia, Events (Cohort H 125 mg, white): 0
Pyrexia, n (%) (Cohort H 125 mg, white): 0
Rash, Events (Cohort H 125 mg, white): 0
Rash, n (%) (Cohort H 125 mg, white): 0
Respiratory, thoracic, and mediastinal disorders, Events (Cohort H 125 mg, white): 1
Respiratory, thoracic, and mediastinal disorders, n (%) (Cohort H 125 mg, white): 1 (12.5)
Skin and subcutaneous tissue disorders, Events (Cohort H 125 mg, white): 0
Skin and subcutaneous tissue disorders, n (%) (Cohort H 125 mg, white): 0
Somnolence, Events (Cohort H 125 mg, white): 0
Somnolence, n (%) (Cohort H 125 mg, white): 0
Vomiting, Events (Cohort H 125 mg, white): 0
Vomiting, n (%) (Cohort H 125 mg, white): 0
Diarrhea, n (%) [4]: 4/8
Headache, n (%) [4]: 2/8
High-density lipoprotein cholesterol decreased, n (%) [4]: 7/8
course of the decrease in HDL-C levels (single- and multiple-dose administration): transient and generally reverted to the baseline values
